Test results: patent US20260184663A1, “INDENE COMPOUNDS, PHARMACEUTICAL COMPOSITIONS THEREOF, AND THEIR THERAPEUTIC APPLICATIONS” (NucMito Pharmaceuticals co. Ltd., priority 2022, published 2026)

Tests used:
Assay type in all cases: cell-based
SW480 (colon cancer) = experiment: Antiproliferative activity (CCK-8 cell viability), SW480; conditions: Homo sapiens, 72 h, read-out: Antiproliferative activity in cancerous cells, SW480 (inhibition of cell growth); for inhibition at 3.3 µM: Compound concentration: 3.3 μM; for inhibition at 10 µM: Compound concentration: 10 μM
How it was run: (§1)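 Cells grown in DMEM (HepG2, SW480), MEM (HeLa) or F-12K (A549), each with 10% FBS, then exposed to compound at 3.3, 10 or 30 μM for 72 h at 37 °C. CCK-8 absorbance at 450 nm; viability expressed as percent of DMSO-treated cells, graded as growth inhibition bands.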

[1] = tested on: MDA-MB-231 (breast cancer); experiment: Antiproliferative activity (CCK-8 cell viability), MDA-MB-231; conditions: Homo sapiens, 72 h, read-out: Antiproliferative activity in cancerous cells, MDA-MB-231 (inhibition of cell growth); for inhibition at 3.3 µM: Compound concentration: 3.3 μM; for inhibition at 10 µM: Compound concentration: 10 μM
How it was run: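 MDA-MB-231 breast cancer cells, grown in DMEM with 10% FBS, were plated in 96-well plates at 2,000-5,000 cells/well. Once attached, they were exposed to compound and incubated at 37° C. for 72 h. Viability was then measured with CCK-8 (10 μL per well, 4 h at 37° C.) by absorbance at 450 nm, relative to DMSO vehicle wells.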

[2] = tested on: alpha-smooth muscle actin (α-SMA); experiment: Inhibition of TGF-β induced expression of alpha-smooth muscle actin (α-SMA) in CFSC cells (western blot); conditions: compound at 10 μM, TGF-β (10 ng/mL), 24 hours, band intensity vs TGF-β only
Description: The ability of a compound to inhabit the TGF-β induced expression of alpha-smooth muscle actin (α-SMA) was evaluated in CCl4-treated fat storing (CFSC) cells. α-SMA is considered as a reliable marker of hepatic stellate cell activation and a key biomarker for liver fibrosis.
CFSC cells maintained in a DMEM medium supplemented with 10% fetal bovine serum were seeded to 12-well culture dishes and grown to a confluence of 60-70% the next day. Culture was changed to a serum-free DMEM medium, and the cells were treated with a compound at 10 μM in the presence of TGF-β (10 ng/mL). The cells were incubated for another 24 hours. All culture was maintained at 37° C. in 5% carbon dioxide.
An NP-40 lysate solution (50 mM Tris (pH 7.4), 150 mM NaCl, 1% NP-40) with EDTA free cocktail added was used to lyse the cells on ice for 30 min. The lysate was collected and centrifuged at 4° C. for 10 min at 12,000 rpm. The pellet was discarded and the supernatant was transferred to a new tube. Cell lysates were loaded with 5× loading buffer and boiled for 10 min, resolved by 10% SDS-polyacrylamide gel electrophoresis (SDS-PAGE), and transferred to PVDF membrane. The membrane was blocked with 5% skim milk in Tris-buffered saline and TWEEN® 20 (TBST; 10 mM Tris-HCl (pH 8.0), 150 mM NaCl, 0.1% TWEEN® 20) for 1 h at room temperature and then incubated with α-SMA and β-actin antibodies overnight at 4° C. After washing twice with TBST, the membrane was probed with a horseradish […] anti-immunoglobulin (1:5000 dilution) for 1 h at room temperature. After two subsequent rinses in TBST, immunoreactive products were reacted with ECL and visualized by a UVP CHEMSTUDIO™ imaging system. The western blotting bands are quantitated using an ImageJ software. The percentage of inhibition was obtained by calculating the percentage decrease in the band intensity compared to the one treated with TGF-β only.
The results are summarized in Table 1, where A represents a value no less of 80% inhibition, B represents a value less than […] but no less than […], C represents a value less than 50% but no less than 30% inhibition, and D represents a value less than 30% inhibition with a compound at 10 μM.

[3] = tested on: B16F10 (malignant melanoma); experiment: Antiproliferative activity (CCK-8 cell viability), B16F10; conditions: Mus musculus, 72 h, read-out: Antiproliferative activity in cancerous cells, B16F10 (inhibition of cell growth); for inhibition at 3.3 µM: B16-F10, Compound concentration: 3.3 μM; for inhibition at 10 µM: B16-F10, Compound concentration: 10 μM
How it was run: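 B16F10 melanoma cells grown in DMEM with 10% FBS were plated in 96-well plates at 2,000-5,000 cells/well. After attachment they were exposed to compound in medium for 72 h at 37° C. CCK-8 solution (10 μL) was then added, and after 4 h at 37° C absorbance was read at 450 nm.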

HepG2 (liver cancer) = experiment: Antiproliferative activity (CCK-8 cell viability), HepG2; conditions: Homo sapiens, 72 h, read-out: Antiproliferative activity in cancerous cells, HepG2 (inhibition of cell growth); for inhibition at 3.3 µM: Compound concentration: 3.3 μM; for inhibition at 10 µM: Compound concentration: 10 μM
How it was run: as §1

[4] = tested on: A549 (lung adenocarcinoma); experiment: Antiproliferative activity (CCK-8 cell viability), A549; conditions: Homo sapiens, 72 h, read-out: Antiproliferative activity in cancerous cells, A549 (inhibition of cell growth); for inhibition at 3.3 µM: Compound concentration: 3.3 μM; for inhibition at 10 µM: Compound concentration: 10 μM
How it was run: as §1

[5] = tested on: A431 (epidermoid carcinoma); experiment: Antiproliferative activity (CCK-8 cell viability), A431; conditions: Homo sapiens, 72 h, read-out: Antiproliferative activity in cancerous cells, A431 (inhibition of cell growth); for inhibition at 3.3 µM: A-431, Compound concentration: 3.3 μM; for inhibition at 10 µM: A-431, Compound concentration: 10 μM
How it was run: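 A431 epidermoid carcinoma cells grown in DMEM with 10% FBS were plated at 2,000-5,000 cells/well in 96-well plates. After attachment they were exposed to compound at 3.3 μM, 10 μM, or 30 μM for 72 h at 37° C. Viability was then assessed by CCK-8 against DMSO vehicle-treated wells.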

HeLa (cervical cancer) = experiment: Antiproliferative activity (CCK-8 cell viability), HeLa; conditions: Homo sapiens, 72 h, read-out: Antiproliferative activity in cancerous cells, HELA (inhibition of cell growth); for inhibition at 3.3 µM: Compound concentration: 3.3 μM; for inhibition at 10 µM: Compound concentration: 10 μM
How it was run: as §1

O=C(O)CC1=C(Cc2ccccc2)/C(=C/c2ccc(COc3ccccc3)cc2)c2ccc(F)cc21 [A1, (Z)-2-(2-Benzyl-5-fluoro-1-(4-(phenoxymethyl)benzylidene)-1H-inden-3-yl)-acetic acid]
inhibition at 3.3 µM (SW480 (colon cancer)): ≥ 50%
inhibition at 10 µM (SW480 (colon cancer)): ≥ 50%
inhibition at 3.3 µM [1]: ≥ 50%
inhibition at 10 µM [1]: ≥ 50%
inhibition at 10 µM [2]: > 80%
inhibition at 3.3 µM [3]: 30 to 50%
inhibition at 10 µM [3]: ≥ 50%
inhibition at 3.3 µM (HepG2 (liver cancer)): 30 to 50%
inhibition at 10 µM (HepG2 (liver cancer)): ≥ 50%
inhibition at 3.3 µM [4]: < 30%
inhibition at 10 µM [4]: 30 to 50%
inhibition at 3.3 µM [5]: 30 to 50%
inhibition at 10 µM [5]: ≥ 50%
inhibition at 3.3 µM (HeLa (cervical cancer)): ≥ 50%
inhibition at 10 µM (HeLa (cervical cancer)): ≥ 50%

CCC1=C(CC(=O)O)c2cc(F)ccc2/C1=C\c1ccc(COc2ccccc2)cc1 [A2, (Z)-2-(2-Ethyl-5-fluoro-1-(4-(phenoxymethyl)benzylidene)-1H-inden-3-yl)acetic acid]
inhibition at 3.3 µM (SW480 (colon cancer)): < 30%
inhibition at 10 µM (SW480 (colon cancer)): < 30%
inhibition at 3.3 µM [1]: ≥ 50%
inhibition at 10 µM [1]: ≥ 50%
inhibition at 10 µM [2]: > 80%
inhibition at 3.3 µM [3]: 30 to 50%
inhibition at 10 µM [3]: ≥ 50%
inhibition at 3.3 µM (HepG2 (liver cancer)): 30 to 50%
inhibition at 10 µM (HepG2 (liver cancer)): ≥ 50%
inhibition at 3.3 µM [4]: 30 to 50%
inhibition at 10 µM [4]: ≥ 50%
inhibition at 3.3 µM [5]: < 30%
inhibition at 10 µM [5]: 30 to 50%
inhibition at 3.3 µM (HeLa (cervical cancer)): 30 to 50%
inhibition at 10 µM (HeLa (cervical cancer)): ≥ 50%

O=C(O)CC1=C(CC2CCCC2)/C(=C/c2ccc(COc3ccccc3)cc2)c2ccc(F)cc21 [A3, (Z)-2-(2-(Cyclopentylmethyl)-5-fluoro-1-(4-(phenoxymethyl)benzylidene)-1H-inden-3-yl)acetic acid]
inhibition at 3.3 µM (SW480 (colon cancer)): ≥ 50%
inhibition at 10 µM (SW480 (colon cancer)): ≥ 50%
inhibition at 3.3 µM [1]: ≥ 50%
inhibition at 10 µM [1]: ≥ 50%
inhibition at 10 µM [2]: > 80%
inhibition at 3.3 µM [3]: ≥ 50%
inhibition at 10 µM [3]: ≥ 50%
inhibition at 3.3 µM (HepG2 (liver cancer)): 30 to 50%
inhibition at 10 µM (HepG2 (liver cancer)): ≥ 50%
inhibition at 3.3 µM [4]: 30 to 50%
inhibition at 10 µM [4]: ≥ 50%
inhibition at 3.3 µM [5]: ≥ 50%
inhibition at 10 µM [5]: ≥ 50%
inhibition at 3.3 µM (HeLa (cervical cancer)): 30 to 50%
inhibition at 10 µM (HeLa (cervical cancer)): ≥ 50%

CCCC1=C(CC(=O)O)c2cc(F)ccc2/C1=C\c1ccc(COc2ccccc2)cc1 [A4, (Z)-2-(5-Fluoro-1-(4-(phenoxymethyl)benzylidene)-2-propyl-1H-inden-3-yl)-acetic acid]
inhibition at 3.3 µM (SW480 (colon cancer)): < 30%
inhibition at 10 µM (SW480 (colon cancer)): 30 to 50%
inhibition at 3.3 µM [1]: ≥ 50%
inhibition at 10 µM [1]: ≥ 50%
inhibition at 10 µM [2]: 50 to 80%
inhibition at 3.3 µM [3]: 30 to 50%
inhibition at 10 µM [3]: ≥ 50%
inhibition at 3.3 µM (HepG2 (liver cancer)): 30 to 50%
inhibition at 10 µM (HepG2 (liver cancer)): ≥ 50%
inhibition at 3.3 µM [4]: 30 to 50%
inhibition at 10 µM [4]: ≥ 50%
inhibition at 3.3 µM [5]: < 30%
inhibition at 10 µM [5]: ≥ 50%
inhibition at 3.3 µM (HeLa (cervical cancer)): ≥ 50%
inhibition at 10 µM (HeLa (cervical cancer)): ≥ 50%

CCC1=C(CC(=O)O)c2cc(F)ccc2/C1=C\c1cccc(COc2ccccc2)c1 [A5, (Z)-2-(2-Ethyl-5-fluoro-1-(3-(phenoxymethyl)benzylidene)-1H-inden-3-yl)acetic acid]
inhibition at 3.3 µM (SW480 (colon cancer)): < 30%
inhibition at 10 µM (SW480 (colon cancer)): ≥ 50%
inhibition at 3.3 µM [1]: ≥ 50%
inhibition at 10 µM [1]: ≥ 50%
inhibition at 10 µM [2]: > 80%
inhibition at 3.3 µM [3]: 30 to 50%
inhibition at 10 µM [3]: ≥ 50%
inhibition at 3.3 µM (HepG2 (liver cancer)): 30 to 50%
inhibition at 10 µM (HepG2 (liver cancer)): ≥ 50%
inhibition at 3.3 µM [4]: 30 to 50%
inhibition at 10 µM [4]: ≥ 50%
inhibition at 3.3 µM [5]: < 30%
inhibition at 10 µM [5]: ≥ 50%
inhibition at 3.3 µM (HeLa (cervical cancer)): 30 to 50%
inhibition at 10 µM (HeLa (cervical cancer)): ≥ 50%

O=C(O)CC1=C(CC2CCCC2)/C(=C/c2cccc(COc3ccccc3)c2)c2ccc(F)cc21 [A6, (Z)-2-(2-(Cyclopentylmethyl)-5-fluoro-1-(3-(phenoxymethyl)benzylidene)-1H-inden-3-yl)acetic acid]
inhibition at 3.3 µM (SW480 (colon cancer)): < 30%
inhibition at 10 µM (SW480 (colon cancer)): ≥ 50%
inhibition at 3.3 µM [1]: ≥ 50%
inhibition at 10 µM [1]: ≥ 50%
inhibition at 10 µM [2]: > 80%
inhibition at 3.3 µM [3]: ≥ 50%
inhibition at 10 µM [3]: ≥ 50%
inhibition at 3.3 µM (HepG2 (liver cancer)): ≥ 50%
inhibition at 10 µM (HepG2 (liver cancer)): ≥ 50%
inhibition at 3.3 µM [4]: ≥ 50%
inhibition at 10 µM [4]: ≥ 50%
inhibition at 3.3 µM [5]: ≥ 50%
inhibition at 10 µM [5]: ≥ 50%
inhibition at 3.3 µM (HeLa (cervical cancer)): ≥ 50%
inhibition at 10 µM (HeLa (cervical cancer)): ≥ 50%

CC1=C(CCO)c2cc(F)ccc2/C1=C\c1cccc(Oc2ccccc2)c1 [A202, (Z)-2-(5-Fluoro-2-methyl-1-(3-phenoxybenzylidene)-1H-inden-3-yl)ethan-1-ol]
inhibition at 10 µM [2]: < 30%

CC1=C(CC(=O)O)c2cc(F)ccc2/C1=C\c1ccc(COc2ccc(F)cc2)cc1F [B23, (Z)-2-(5-Fluoro-1-(2-fluoro-4-((4-fluorophenoxy)methyl)benzylidene)-2-methyl-1H-inden-3-yl)acetic acid]
inhibition at 10 µM [2]: 50 to 80%

COc1cc(COc2ccc(F)cc2)ccc1/C=C1/C(C)=C(CC(=O)O)c2cc(F)ccc21 [B25, (Z)-2-(5-Fluoro-1-(4-((4-fluorophenoxy)methyl)-2-methoxybenzylidene)-2-methyl-1H-inden-3-yl)acetic acid]
inhibition at 10 µM [2]: > 80%

CC1=C(CCC(=O)O)c2ccccc2/C1=C\c1cccc(Oc2ccccc2)c1 [C24, (Z)-3-(2-Methyl-1-(3-phenoxybenzylidene)-1H-inden-3-yl)propanoic acid]
inhibition at 10 µM [2]: < 30%

CC1=C(C=CC(=O)O)c2cc(F)ccc2/C1=C\c1ccc(Oc2ccc(F)cc2)cc1 [C33, 3-(5-Fluoro-1-((Z)-4-(4-fluorophenoxy)benzylidene)-2-methyl-1H-inden-3-yl)-acrylic acid]
inhibition at 10 µM [2]: > 80%

CC1=C(C(C)C(=O)O)c2ccccc2/C1=C\c1ccc(C(C)C)cc1 (stereo not drawn) [D3, (Z)-2-(1-(4-Isopropylbenzylidene)-2-methyl-1H-inden-3-yl)propanoic acid]
inhibition at 10 µM [2]: < 30%
